Consider 7 compounds from publication PMC5715404, “Design, Synthesis, and Evaluation of Ribose-Modified Anilinopyrimidine Derivatives as EGFR Tyrosine Kinase Inhibitors” (Frontiers in Chemistry, 2017).

One assay deals with T1, EGFR WT (Homo sapiens, UniProt P00533).
T1 construct: Kinases domain of EGFR WT and EGFR L858R/T790M were expressed; made in house; host or cells: baculovirus expression system (Bac-to-Bac)
The assay can be described thus: ELISA-based EGFR-TK kinase assay, EGFR WT. It counts as biochemical. The conditions noted are these: 10 μmol/L ATP solution, 37°C 1 h, mean ± SD of at least two determinations, read-out: EGFR tyrosine kinase IC50, EGFR. The procedure:
(§1) Kinases domain of EGFR WT and EGFR L858R/T790M were expressed using the Bac-to-Bac™ baculo virus expression system (Invitrogen, Carlsbad, CA, USA) and purified in Ni-NTA columns (QIAGEN Inc., Valencia, CA, USA). The kinase activity was evaluated with enzyme-linked immunosorbent assay (ELISA). Briefly, 20 μg/mL Poly (Glu, Tyr) 4:1 (Sigma, St. Louis, MO) was precoated in 96-well ELISA plates as substrate. After adding 50 μL of 10 μmol/L ATP solution which was diluted in kinase reaction buffer (50 mM HEPES pH 7.4, 20 mM MgCl2, 0.1 mM MnCl2, 0.2 mM Na3VO4, 1 mM DTT), the plate was treated with 1 μL of indicated concentrations of compounds (dissolved in DMSO) per well. Experiments at each concentration were performed in duplicate. Reaction was initiated by adding tyrosine kinase diluted in kinase reaction buffer. After incubation at 37°C for 1 h, the wells were washed three times with phosphate buffered saline (PBS) containing 0.1% Tween 20 (T-PBS). One hundred microliters of anti-phosphotyrosine (PY99) antibody (1:1,000, Santa Cruz Biotechnology, Santa Cruz, CA) diluted in T-PBS containing 5 mg/mL BSA was added and the plate was incubated at 37°C for 30 min. After the plate was washed three times, 100 μL horseradish peroxidase-conjugated goat anti-mouse IgG (1:2,000, Calbiochem, SanDiego, CA) was added and the plate was incubated at 37°C for 30 min. The plate was washed, added with 100 μL citrate buffer (0.1 M, pH 5.5) containing 0.03% H2O2. Then 2 mg/mL o-phenylenediamine was added, and samples were incubated at room temperature until color emerged. The reaction was terminated immediately by adding 50 μL of 2 M H2SO4. Plate was read using a multiwell spectrophotometer (VERSAmax™, Molecular Devices, Sunnyvale, CA, USA) at 492 nm. The inhibitory rate (%) was calculated with the formula: [1 − (A492 treated/A492 control)] × 100%. IC50 values were calculated from the inhibitory curves.
(ELISA stands for enzyme-linked immunosorbent assay.)

The next assay concerns the target T2, EGFR L858R/T790M (Homo sapiens, UniProt P00533, L858R/T790M).
T2 construct: Kinases domain of EGFR WT and EGFR L858R/T790M were expressed; made in house; host or cells: baculovirus expression system (Bac-to-Bac)
The assay can be described thus: ELISA-based EGFR-TK kinase assay, EGFR L858R/T790M. The conditions noted are these: for selectivity for EGFR L858R/T790M over WT EGFR (in words): EGFR L858R/T790M versus WT EGFR; for IC50 / inhibitory activity against EGFR tyrosine kinases (in words): ELISA; for IC50: 10 μmol/L ATP solution, 37°C 1 h, mean ± SD of at least two determinations, read-out: EGFR tyrosine kinase IC50, EGFR T790M/L858R; for inhibitory activity against EGFR tyrosine kinases (in words): EGFR WT and EGFR L858R/T790M. It counts as biochemical. The procedure:
as §1

Entries after “also recorded” stand apart in the source; their conditions may differ.

T1 sequence (P00533 712-979 limits assumed): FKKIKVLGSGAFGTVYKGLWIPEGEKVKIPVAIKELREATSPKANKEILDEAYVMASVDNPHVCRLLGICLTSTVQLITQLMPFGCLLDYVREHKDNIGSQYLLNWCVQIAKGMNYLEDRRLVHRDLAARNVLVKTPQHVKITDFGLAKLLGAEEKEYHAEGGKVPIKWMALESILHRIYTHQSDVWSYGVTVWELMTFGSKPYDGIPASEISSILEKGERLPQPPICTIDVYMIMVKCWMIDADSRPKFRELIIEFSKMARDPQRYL
T2 sequence (P00533 712-979 T790M/L858R limits assumed): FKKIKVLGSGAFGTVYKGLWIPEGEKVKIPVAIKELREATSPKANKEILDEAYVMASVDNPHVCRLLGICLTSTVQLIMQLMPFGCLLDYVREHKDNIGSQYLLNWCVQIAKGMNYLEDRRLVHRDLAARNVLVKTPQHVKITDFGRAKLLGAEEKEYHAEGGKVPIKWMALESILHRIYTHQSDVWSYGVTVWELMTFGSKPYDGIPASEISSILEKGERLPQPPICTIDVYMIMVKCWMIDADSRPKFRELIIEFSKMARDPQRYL

Consider `C=CC(=O)N[C@H]1[C@H]2OC(C)(C)O[C@H]2O[C@@H]1COc1nc(Nc2ccc(N3CCN(C)CC3)cc2OC)ncc1Cl` [Compound 1a, 1,2-O-isopropylidene-3-N-acryloyl-3-deoxy-5-O-[5-chloro-2-N-(2-methoxy-4-(4-methylpiperazin-1-yl)phenyl)pyrimidin-4-yl]-α-D-ribofuranoside], for which, on EGFR WT, the IC50 was more than 10 µM. In addition, on EGFR L858R/T790M, the “selectivity for EGFR L858R/T790M over WT EGFR (in words)” value is “potent and specific inhibitory activity; also recorded: good selectivity”; the IC50 was 0.62 µM.

Regarding `C=CC(=O)N[C@@H]1[C@@H](COc2nc(Nc3ccc(N4CCN(C)CC4)cc3OC)ncc2Cl)OC(O)[C@@H]1O` (stereo partly drawn) [Compound 1b, 3-N-acryloyl-3-deoxy-5-O-[5-chloro-2-N-(2-methoxy-4-(4-methylpiperazin-1-yl)phenyl)pyrimidin-4-yl]-D-ribofuranose], on EGFR WT, the IC50 was more than 10 µM. On EGFR L858R/T790M, the “selectivity for EGFR L858R/T790M over WT EGFR (in words)” value is “specific inhibitory activity” and the IC50 was determined as 2.64 µM.

As for `C=CC(=O)NC1O[C@H](COc2nc(Nc3ccc(N4CCN(C)CC4)cc3OC)ncc2Cl)[C@@H](O)[C@H]1O` (stereo partly drawn) [Compound 1c, 5-O-[5-chloro-2-N-(2-methoxy-4-(4-methylpiperazin-1-yl)phenyl)pyrimidin-4-yl]-D-ribofuranosyl acrylamide], the IC50 at EGFR WT was more than 10 µM. Besides, at EGFR L858R/T790M, the “inhibitory activity against EGFR tyrosine kinases (in words)” value is “no inhibitory activities; also recorded: no inhibitory activity” and the IC50 was more than 10 µM.

Turning to `C=CC(=O)N[C@H]1O[C@H](CO)[C@@H](Oc2nc(Nc3ccc(N4CCN(C)CC4)cc3OC)ncc2Cl)[C@H]1O[Si](C)(C)C(C)(C)C` [Compound 1d, 3-O-[5-chloro-2-N-(2-methoxy-4-(4-methylpiperazin-1-yl)phenyl)pyrimidin-4-yl]-2-O-tert-butyldimethylsilyl-α-D-ribofuranosyl acrylamide], the IC50 on EGFR WT is more than 10 µM. Further, at EGFR L858R/T790M, the “inhibitory activity against EGFR tyrosine kinases (in words)” value is “no inhibitory activities; also recorded: no inhibitory activity” and the IC50 was more than 10 µM.

In the case of `COc1cc(N2CCN(C)CC2)ccc1Nc1ncc(Cl)c(OC[C@H]2O[C@@H](N=[N+]=[N-])[C@H](O)[C@@H]2O)n1` [Compound 24], the IC50 on EGFR WT and on EGFR L858R/T790M was more than 10 µM in each case.

For the compound `COc1cc(N2CCN(C)CC2)ccc1Nc1ncc(Cl)c(O[C@H]2[C@@H](O[Si](C)(C)C(C)(C)C)[C@H](N=[N+]=[N-])O[C@@H]2CO)n1` [Compound 25], the IC50 at EGFR WT and at EGFR L858R/T790M was more than 10 µM each time.

Take `COc1cc(N2CCN(C)CC2)ccc1Nc1ncc(Cl)c(OC[C@H]2OC(O)[C@H](O)[C@@H]2O)n1` (stereo partly drawn) [Compound 26]: the IC50 on EGFR WT and at EGFR L858R/T790M was more than 10 µM in each case.
